Assay [1] deals with RAC-alpha serine/threonine-protein kinase (Homo sapiens, UniProt P31749). Briefly: (§1) Kinase Assay: For the assay 50 nl of a 100 fold concentrated solution of the test compound in DMSO was pipetted into a black low volume 384 well microtiter plate (Greiner Bio-One, Frickenhausen, Germany), 2 μl of a solution of Akt1 in assay buffer [50 mM TRIS/HCl pH 7.5, 5 mM MgCl2, 1 mM dithiothreitol, 0.02% (v/v) Triton X-100 (Sigma)] were added and the mixture was incubated for 15 min at 22° C. to allow pre-binding of the test compounds to the enzyme before the start of the kinase reaction. Then the kinase reaction was started by the addition of 3 μl of a solution of adenosine-tri-phosphate (ATP, 16.7 μM=>final conc. in the 5 μl assay volume is 10 μM) and substrate (1.67 μM=>final conc. in the 5 μl assay volume is 1 μM) in assay buffer and the resulting mixture was incubated for a reaction time of 60 min at 22° C. The concentration of Akt1 in the assay was adjusted depending of the activity of the enzyme lot and was chosen appropriate to have the assay in the linear range, typical enzyme concentrations were in the range of about 0.05 ng/μl (final conc. in the 5 μl assay volume). The reaction was stopped by the addition of 5 μl of a solution of HTRF detection reagents (200 nM streptavidine-XL665 [Cisbio] and 1.5 nM anti-phosho-Serine antibody [Millipore, cat. #35-001] and 0.75 nM LANCE Eu-W 1024 labeled anti-mouse IgG antibody [Perkin Elmer]) in an aqueous EDTA-solution (100 mM EDTA, 0.1% (w/v) bovine serum albumin in 50 mM HEPES/NaOH pH 7.5). The resulting mixture was incubated 1 h at 22° C. to allow the binding of the biotinylated phosphorylated peptide to the streptavidine-XL665 and the antibodies. Subsequently the amount of phosphorylated substrate was evaluated by measurement of the resonance energy transfer from the anti-mouse-IgG-Eu-Chelate to the streptavidine-XL665. Therefore, the fluorescence emissions at 620 nm and 665 nm after excitation at 350 nm was measured in a HTRF reader, e.g. a Rubystar (BMG Labtechnologies, Offenburg, Germany) or a Viewlux (Perkin-Elmer).
RAC-alpha serine/threonine-protein kinase, sequence (P31749 whole entry): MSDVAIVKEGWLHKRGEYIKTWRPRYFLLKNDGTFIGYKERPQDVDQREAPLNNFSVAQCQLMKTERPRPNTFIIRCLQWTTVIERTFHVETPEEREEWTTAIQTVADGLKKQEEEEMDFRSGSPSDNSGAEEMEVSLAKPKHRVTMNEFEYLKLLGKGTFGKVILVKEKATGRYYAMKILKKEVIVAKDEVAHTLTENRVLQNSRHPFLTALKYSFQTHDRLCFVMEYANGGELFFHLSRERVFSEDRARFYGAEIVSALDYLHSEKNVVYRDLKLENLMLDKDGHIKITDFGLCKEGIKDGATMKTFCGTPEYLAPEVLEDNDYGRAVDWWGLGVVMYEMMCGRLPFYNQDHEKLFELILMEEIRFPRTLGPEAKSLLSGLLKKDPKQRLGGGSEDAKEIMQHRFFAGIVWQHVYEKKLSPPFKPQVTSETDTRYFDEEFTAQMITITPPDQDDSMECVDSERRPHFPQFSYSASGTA

The target of assay [2] is RAC-beta serine/threonine-protein kinase (Homo sapiens, UniProt P31751). Described as §1, with “Assay: His-tagged human recombinant kinase full-length Akt2 expressed in insect cells and activated by PDK1 was purchased form Invitrogen (part number PV 3975). As substrate for the kinase reaction the biotinylated peptide biotin-Ahx-[…] (C-terminus in amide form) was used which can be purchased e.g. from the company Biosynthan GmbH (Berlin-Buch, Germany).” for “Assay:”, “Akt2” for “Akt1”, “0.2” for “0.05”, “antibodies.” for “antibodies. Subsequently the amount of phosphorylated substrate was evaluated by measurement of the resonance energy transfer from the anti-mouse-IgG-Eu-Chelate to the streptavidine-XL665. Therefore, the fluorescence emissions at 620 nm and 665 nm after excitation at 350 nm was measured in a HTRF reader, e.g. a Rubystar (BMG Labtechnologies, Offenburg, Germany) or a Viewlux (Perkin-Elmer).”.
RAC-beta serine/threonine-protein kinase, sequence (P31751 whole entry): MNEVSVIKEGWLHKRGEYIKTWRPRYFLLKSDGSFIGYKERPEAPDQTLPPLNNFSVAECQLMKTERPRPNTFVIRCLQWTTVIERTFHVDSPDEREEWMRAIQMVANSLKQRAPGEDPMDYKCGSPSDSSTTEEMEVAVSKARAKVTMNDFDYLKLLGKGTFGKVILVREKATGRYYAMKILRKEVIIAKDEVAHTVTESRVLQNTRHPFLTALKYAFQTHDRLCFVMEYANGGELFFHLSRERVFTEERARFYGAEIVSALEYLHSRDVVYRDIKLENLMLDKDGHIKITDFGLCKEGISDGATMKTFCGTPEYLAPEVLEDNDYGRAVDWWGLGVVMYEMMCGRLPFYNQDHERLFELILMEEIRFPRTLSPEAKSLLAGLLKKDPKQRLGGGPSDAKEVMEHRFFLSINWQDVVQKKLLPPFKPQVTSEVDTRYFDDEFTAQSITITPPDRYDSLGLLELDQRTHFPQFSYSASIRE

Among the data in ChEMBL document CHEMBL5726044, “Imidazopyridazines as Akt kinase inhibitors” (2017) are IC50 values, retold here.

For `CCOc1nn2c(-c3ccccc3)c(-c3ccc(C4(N)CCC4)cc3)nc2c(C)c1C`, the half-inhibitory concentration (IC50) in assay [1] amounted to 45 nM; in assay [2], 56 nM.
The matching figures for `NC1(c2ccc(-c3nc4ccc(C(F)(F)F)nn4c3-c3ccccc3)cc2)CCC1`: 120 nM and 70 nM.
The matching figures for `NC(=O)c1ccnn2c(-c3ccccc3)c(-c3ccc(C4(N)CCC4)cc3)nc12`: 65 nM and 110 nM.
